Data published in US5565444A, “Osteogenesis promoter and osteoporosis remedy” (LTT Institute Co., Ltd., priority 1993, dated 1996).
Like-named read-outs stand apart in the source and are kept apart here.

Key:
[1] = background report, cited from earlier work
[2] = system: anterior lobe of prostate; assay: Androgenic action, Hershberge method (1); assay type: in vivo, castrated Wistar male rat; settings: 10 successive days, FIG. 8
Procedure: (§1) (1) In accordance with the Hershberge method, a castrated, 4-weeks old, Wistar, male rat (6 rats per group) was subcutaneously administered with 11-OH-Δ^4- A at 0.1-0.3 mg/rat/day for 10 successive days. Similarly, a vehicle (sesame oil) was administered to the Sham-operated group and a control group, and testosterone propionate (T.P.) was administered at 0.1 mg/rat/day as a positive control. On the day following the completion of the administration, the anterior lobe of prostate and the musculus levator ani were excised and weighed. From a change in the weight of the anterior lobe of the prostate and the musculus levator ani, androgenic action and anabolic action were studied.

[3] = system: Osteogenic Precursor Cells in Bone Marrow; assay: Effects on the number of osteogenic precursor cells in bone marrow, Experiment 1 (FCFU formation after intraperitoneal administration); assay type: in vivo; settings: 1 mg/kg intraperitoneal, 7 successive days; Wistar rat, N = 4; after 7 days incubation
Procedure: (§2) After the invention compound was administered to a 7-weeks old Wistar or Lewis rat intraperitoneally (Experiment 1) or dorsi-subcutaneously (Experiment 2) for 7 successive days, the femurs and tibias were excised. Marrow cells were collected from the bones so obtained, followed by incubation in a 25-cm^2 culture flask for 7 days. For the incubation, the αMEM medium containing 15% fetal calf serum was used. Subsequent to giemsa or alkaline phosphatase staining, the number of fibroblast colony forming units on the culture flask was counted. The number of the fibroblast colony forming units (=FCFUs) is known to correlate with the in vitro ostogenesis. The total number of FCFUs and the number of FCFUs positive to alkaline phosphatase are shown in Table 1 and Table 2, respectively. Experiment 1:
Influence of the intraperitoneal administration of
the invention compound at 1 mg/kg for 7 successive
days on the formation of FCFUs:
The number of FCFUs (after 7 days) (Wistar rat N = 4)

[4] = system: osteogenic precursor cells; assay: Improving effects on the osteogenesis depression in postovariectomy osteoporosis (FCFU forming ability); assay type: in vivo, female Wistar rat (ovariectomized)
Procedure: From a 7-weeks old female Wistar rat, the ovaria were both excised and three months after that, administration of a drug was started. As the drug, 11β-OH-Δ^4 -A, was administered dorsi-subcutaneously three times a week, each, at 0.1 mg/kg or 1 mg/kg. Subsequent to the administration of the drug for 1 month, the femurs and shinbones were collected. From the right femur and both the shinbones, osteoblasts were collected and the formation of colonies (FCFUs) of osteogenic precursor cells was observed.

osteocalcin = assay: Effects on serum osteocalcin (radioimmunoassay); assay type: in vivo, Wistar rat
Procedure: A 7-weeks old Wistar rat was intraperitoneally administered at 0.1 mg/kg with 11β-OH-Δ^4 -A for 7 successive days and the concentration of osteocalcin in the serum was measured by radioimmunoassay.

Acute toxicity test = settings: in vivo, sc; subcutaneous, Wistar rat
Procedure: An acute toxicity test of the invention compound 11β-OH-Δ^4 -A was conducted in the following manner.
To a Wistar rat, 11β-OH-Δ^4 -A was subcutaneously administered in an amount considered to be an intoxicating dose. The conditions of the rat were observed and at the same time, the LD50 value was determined.

[5] = Improving effects on the bone mass reduction in postovariectomy osteoporosis (bone-salt amount by DXA); assay type: in vivo, female Wistar rat (ovariectomized); settings: three times a week, 3 months, FIGS. 3-6
Procedure: From a 7-weeks old female Wistar rat, the ovaria were both excised. Three months after that, the administration of a drug was started. As the drug, 11β-OH-^4 -A or dihydroepiandrosterone (DHEA) was dorsisubcutaneously administered three times a week, each, at 1 mg/kg. After the drug administration was continued for 3 months, the femurs and shinbones were collected and the bone-salt amount was measured at three places, that is, the proximal end, diaphysis and distal end. The measurements of the bone-salt amount were conducted using an Aloka DCS-600 model by dual energy X-ray absorptiometry (DXA).

[6] = system: Osteogenic Precursor Cells in Bone Marrow; assay: Effects on the number of osteogenic precursor cells in bone marrow, Experiment 2 (FCFU formation after subcutaneous administration); assay type: in vivo; settings: 7 successive days, Lewis rat, N = 4
Procedure: as §2
Influence of the subcutaneous administration of
the invention compounds and testosterone for 7
successive days on the formation of FCFUs:
The number of FCFUs (after 7 days) (Lewis rat N = 4)

musculus levator ani = assay: Anabolic action, Hershberge method (1); assay type: in vivo, castrated Wistar male rat; settings: 0.3 mg/rat/day subcutaneous, 10 successive days; FIG. 8
Procedure: as §1

estrogen
effect on bone mass of ovariectomized animals [1]: evident curative effect for a decrease in the bone mass of an ovariectomized animal

C[C@]12CC[C@H](O)CC1=CC[C@@H]1[C@@H]2CC[C@]2(C)C(=O)CC[C@@H]12 [dihydroepiandrosterone (DHEA), dihydroepiandrosterone]
effect on bone mass of ovariectomized animals [1]: extremely weak
effect on bone mass of ovariectomized animals ([1]; listed as dihydroepiandrosterone): bone-salt improving effects on the ovariectomized rat

C[C@]12CCC(=O)C=C1CC[C@@H]1[C@@H]2[C@@H](O)C[C@]2(C)C(=O)CC[C@@H]12 [11β-OH-Δ^4 -A, 11β-hydroxy-4-androstene-3,17-dione]
weight of the prostate ([2]; 0.1-0.3 mg/rat/day (0.6-1.8 mg/kg/day) subcutaneous): a significant increase in the weight of the prostate
Androgenic action ([2]; 0.1-0.3 mg/rat/day subcutaneous): very weak
The number of FCFUs positive for alkaline phosphatase [3]: 40 ± 11
The total FCFU number [3]: 160 ± 35
osteogenesis depression observed after the ovariectomy ([4]; 0.1 mg/kg thrice a week for a month): successfully normalized back the osteogenesis depression observed after the ovariectomy
FCFU formation ([4]; 0.1 mg/kg, dorsi-subcutaneous, three times a week, 1 month, FIG. 2): a marked increase in the FCFU formation
Serum osteocalcin concentration (osteocalcin; 0.1 mg/kg intraperitoneal, 7 successive days): 72.6 ± 2.7 ng/mL
Serum osteocalcin concentration (osteocalcin; 5 mg/kg): 75.5 ± 1.0 ng/mL
concentration of osteocalcin (in words) (osteocalcin; successive administration): increase the concentration of osteocalcin
LD50 (Acute toxicity test): ≥ 1000 mg/kg
bone-salt amount at places of the femur ([5]; 1 mg/kg dorsi-subcutaneous): recovered to similar levels to those of the Sham-operated rat
bone-salt effects compared with dihydroepiandrosterone ([5]; 1 mg/kg each, dorsi-subcutaneous): more potent than those of dihydroepiandrosterone
The number of FCFUs positive for alkaline phosphatase ([6]; 0.1 mg/kg subcutaneous): 96 ± 16
The total FCFU number ([6]; 0.1 mg/kg subcutaneous): 180 ± 9
The number of FCFUs positive for alkaline phosphatase ([6]; 1 mg/kg subcutaneous): 128 ± 19
The total FCFU number ([6]; 1 mg/kg subcutaneous): 189 ± 26
weight of the musculus levator ani (anabolic action) (musculus levator ani): An increase in the weight of the musculus levator ani

C[C@]12CC[C@H]3[C@@H](CCC4=CC(=O)CC[C@@]43C)[C@@H]1CC[C@@H]2O [Testosterone, reference compound]
The number of FCFUs positive for alkaline phosphatase ([6]; 1 mg/kg subcutaneous): 62 ± 5
The total FCFU number ([6]; 1 mg/kg subcutaneous): 149 ± 5

C[C@]12C=CC(=O)C=C1CC[C@@H]1[C@@H]2[C@@H](O)C[C@]2(C)C(=O)CC[C@@H]12 [11β-OH-Δ^1,4 -A, 11β-hydroxy-1,4-androstadiene-3,17-dione]
The number of FCFUs positive for alkaline phosphatase ([6]; 0.1 mg/kg subcutaneous): 85 ± 11
The total FCFU number ([6]; 0.1 mg/kg subcutaneous): 178 ± 20
The number of FCFUs positive for alkaline phosphatase ([6]; 1 mg/kg subcutaneous): 117 ± 12
The total FCFU number ([6]; 1 mg/kg subcutaneous): 217 ± 22
